Tested on: Phytophthora infestans
Test: whole plant or invertebrate
Type: in vivo
Settings: tomato, protective, evaluation 3 days after inoculation; for pest or weed control at 10 g/ha / pest or weed control at 20 g/ha / pest or weed control at 0.1 g/ha / pest or weed control at 1 g/ha: Phytophthora infestans, in Solanum lycopersicum, 72 h; for pest or weed control at 10 g/ha: read-out: Efficacy in %, single active compound, application rate 10 g/ha; for Efficacy in %: single active compound; for pest or weed control at 20 g/ha: read-out: Efficacy in %, single active compound, application rate 20 g/ha; for pest or weed control at 0.1 g/ha: read-out: Efficacy in %, single active compound, application rate 0.1 g/ha; for pest or weed control at 1 g/ha: read-out: Efficacy in %, single active compound, application rate 1 g/ha

**Q.** With `CC(C)(C)C(O)C(Oc1ccc(Cl)cc1)n1cncn1` (stereo not shown) [triadimenol (IIb), 1-(4-chloro-phenoxy)-3,3-dimethyl-1-(1,2,4-triazol-1-yl)-butan-2-ol] as the molecule, how does the pest or weed control at 10 g/ha read?
**A.** 0%

**Q.** Which Efficacy in % (application rate 20 g/ha) does the source give for “zinc propylene-1,2-bis-(dithiocarbamidate) [propineb (VI)]” here?
**A.** 19%

**Q.** For `O=C1c2ccccc2C(=O)N1SC(Cl)(Cl)Cl` [folpet (XIX), folpet], which pest or weed control at 20 g/ha is on record?
**A.** 0%

**Q.** How did the pest or weed control at 0.1 g/ha turn out when `Cc1noc(C)c1S(=O)(=O)n1c(Cl)nc2cc3c(cc21)OC(F)(F)O3` [compound of the formula (XXVII), 1-(3,5-dimethyl-isoxazol-4-sulphonyl)-2-chloro-6,6-difluoro-[1,3]-dioxolo-[4,5f]-benzimidazole] was run?
**A.** 30%

**Q.** `CN(C)S(=O)(=O)N(SC(F)(Cl)Cl)c1ccccc1` [dichlofluanid (IVa), dichlofluanid] was tested. Which Efficacy in % (application rate 20 g/ha) did it give?
**A.** 5%

**Q.** With `Cc1ccc(N(SC(F)(Cl)Cl)S(=O)(=O)N(C)C)cc1` [tolylfluanid (IVb), tolylfluanid] as the molecule, how does the Efficacy in % (application rate 20 g/ha) read?
**A.** 21%

**Q.** How did the pest or weed control at 10 g/ha turn out when `OC(Cc1ccccc1Cl)(Cn1nc[nH]c1=S)C1(Cl)CC1` (stereo not shown) [compound of the formula (XXI) (20)] was run?
**A.** 2%

**Q.** For `CC1(C(=O)Nc2ccc(O)c(Cl)c2Cl)CCCCC1` [fenhexamid (VIII), fenhexamid], which pest or weed control at 10 g/ha is on record?
**A.** 13%

**Q.** Which pest or weed control at 1 g/ha does the source give for `CO/C=C(/C(=O)OC)c1ccccc1Oc1cc(Oc2ccccc2C#N)ncn1` [compound of the formula (XII) (11), azoxystrobin] here?
**A.** 55%

**Q.** How did the pest or weed control at 10 g/ha turn out when `O=[N+]([O-])c1cc(C(F)(F)F)c(Cl)c([N+](=O)[O-])c1Nc1ncc(C(F)(F)F)cc1Cl` [fluazinam (XXXI), fluazinam] was run?
**A.** 56%

**Q.** Which pest or weed control at 1 g/ha does the source give for `CO/N=C(/C1=NOCCO1)c1ccccc1Oc1ncnc(Oc2ccccc2Cl)c1F` [compound of the formula (XIV) (13)] here?
**A.** 8%

**Q.** For `CC(C)(C)C(O)(CCc1ccc(Cl)cc1)Cn1cncn1` (stereo not shown) [tebuconazole (III), tebuconazole], which pest or weed control at 10 g/ha is on record?
**A.** 5%

**Q.** mancozeb [mancozeb (VIIc)] was tested. Which Efficacy in % (application rate 20 g/ha) did it give?
**A.** 28%

**Q.** Which pest or weed control at 0.1 g/ha does the source give for `CC(C)OC(=O)NC(C(=O)NC(C)c1nc2ccc(F)cc2s1)C(C)C` (stereo not shown) [compound of the formula (I), isopropyl 1-({[1-(6-fluoro-1,3-benzothiazol-2-yl)ethyl]-amino}carbonyl)-2-methylpropylcarbamate] here?
**A.** 47%

**Q.** What about the pest or weed control at 1 g/ha of the same molecule?
**A.** 47%

**Q.** How did the pest or weed control at 10 g/ha turn out when `CC(C)(C)C(O)C(Oc1ccc(-c2ccccc2)cc1)n1cncn1` (stereo not shown) [bitertanol (IIc), 1-(4-phenyl-phenoxy)-3,3-dimethyl-1-(1,2,4-triazol-1-yl)-butan-2-ol] was run?
**A.** 4%

**Q.** `CCC1(C(=O)NC(C)c2ccc(Cl)cc2)C(C)C1(Cl)Cl` (stereo not shown) [carpropamid (V), N-[1-(4-chloro-phenyl)-ethyl]-2,2-dichloro-1-ethyl-3-methyl-cyclopropane-carboxamide] was tested. Which pest or weed control at 10 g/ha did it give?
**A.** 0%

**Q.** With `[Cl-].[Cu+2].[Cu+2].[OH-].[OH-].[OH-]` [compound of the formula (XXXXVIa) (40), copper oxychloride] as the molecule, how does the Efficacy in % (application rate 50 g/ha) read?
**A.** 0%

**Q.** For `CCCN(CC)CC1COC2(CCC(C(C)(C)C)CC2)O1` (stereo not shown) [spiroxamine (XI), 8-t-butyl-2-(N-ethyl-N-n-propyl-amino)-methyl-1,4-dioxaspiro[5,4]-decane], which Efficacy in % (application rate 10 g/ha) is on record?
**A.** 0%

**Q.** How did the pest or weed control at 1 g/ha turn out when `CO/N=C(/C(=O)OC)c1ccccc1CO/N=C(\C)c1cccc(C(F)(F)F)c1` [compound of the formula (XIII) (12), trifloxystrobin] was run?
**A.** 0%

**Q.** For `O=[N+]([O-])/N=C1\NCCN1Cc1ccc(Cl)nc1` [imidacloprid (XXII), 1-[(6-chloro-3-pyridinyl)-methyl]-N-nitro-2-imidazolidinimine], which pest or weed control at 10 g/ha is on record?
**A.** 0%

**Q.** With `N#Cc1c(Cl)c(Cl)c(Cl)c(C#N)c1Cl` [chlorothalonil (XXIX), chlorothalonil] as the molecule, how does the pest or weed control at 20 g/ha read?
**A.** 12%

Source: US7115593B2 (priority 2000, dated 2006)
